Source: the NIST ThermoML archive (doi:10.1021/je0501639)

Experiments:
[1] = xn = mol fraction of the nth substance listed; conditions: 100.8 kPa, Liquid
[2] = refractive index (Na D-line) (dimensionless); xn = mol fraction of the nth substance listed; conditions: 100.8 kPa, Liquid, Standard Abbe refractometry

CC(C)CC(C)(C)C [2,2,4-trimethylpentane] + CCO
Conditions	mass density, 298.15 K [kg/m3]	mass density, 308.15 K [kg/m3]	mass density, 318.15 K [kg/m3]	refractive index, 298.15 K	refractive index, 308.15 K	refractive index, 318.15 K	viscosity, 298.15 K [mPa·s]	viscosity, 308.15 K [mPa·s]	viscosity, 318.15 K [mPa·s]
[1], x2 = 0	687.89	679.55	671.1	–	–	–	0.474	0.425	0.38
[1], x2 = 0.05	688.94	680.44	671.89	–	–	–	0.472	0.421	0.376
[1], x2 = 0.1	690.43	681.85	673.2	–	–	–	0.47	0.419	0.377
[1], x2 = 0.15	692.16	683.55	674.81	–	–	–	0.476	0.423	0.378
[1], x2 = 0.2	694.08	685.46	676.67	–	–	–	0.485	0.428	0.381
[1], x2 = 0.25	696.22	687.59	678.74	–	–	–	0.494	0.435	0.387
[1], x2 = 0.3	698.58	689.91	681.05	–	–	–	0.506	0.443	0.392
[1], x2 = 0.35	701.19	692.48	683.6	–	–	–	0.52	0.453	0.401
[1], x2 = 0.4	704.04	695.33	686.41	–	–	–	0.538	0.469	0.413
[1], x2 = 0.45	707.19	698.47	689.53	–	–	–	0.558	0.487	0.426
[1], x2 = 0.5	710.69	701.95	693	–	–	–	0.583	0.507	0.443
[1], x2 = 0.55	714.59	705.81	696.87	–	–	–	0.611	0.53	0.461
[1], x2 = 0.6	718.95	710.14	701.18	–	–	–	0.642	0.555	0.483
[1], x2 = 0.65	723.82	714.99	706	–	–	–	0.675	0.583	0.505
[1], x2 = 0.7	729.34	720.46	711.43	–	–	–	0.71	0.614	0.528
[1], x2 = 0.75	735.56	726.64	717.6	–	–	–	0.75	0.647	0.557
[1], x2 = 0.8	742.67	733.71	724.66	–	–	–	0.797	0.685	0.589
[1], x2 = 0.85	750.87	741.88	732.81	–	–	–	0.853	0.731	0.626
[1], x2 = 0.9	760.47	751.45	742.33	–	–	–	0.916	0.784	0.668
[1], x2 = 0.95	771.78	762.83	753.76	–	–	–	0.989	0.843	0.712
[2], x2 = 0	–	–	–	1.38898	1.38398	1.37898	–	–	–
[2], x2 = 0.05	–	–	–	1.38825	1.38325	1.37815	–	–	–
[2], x2 = 0.1	–	–	–	1.38749	1.38247	1.37738	–	–	–
[2], x2 = 0.15	–	–	–	1.38668	1.38169	1.37662	–	–	–
[2], x2 = 0.2	–	–	–	1.38586	1.38087	1.37584	–	–	–
[2], x2 = 0.25	–	–	–	1.38499	1.38002	1.37503	–	–	–
[2], x2 = 0.3	–	–	–	1.38408	1.37913	1.37417	–	–	–
[2], x2 = 0.35	–	–	–	1.38311	1.37819	1.37326	–	–	–
[2], x2 = 0.4	–	–	–	1.38208	1.37719	1.37229	–	–	–
[2], x2 = 0.45	–	–	–	1.38098	1.37612	1.37125	–	–	–
[2], x2 = 0.5	–	–	–	1.3798	1.37497	1.37013	–	–	–
[2], x2 = 0.55	–	–	–	1.37853	1.37373	1.36892	–	–	–
[2], x2 = 0.6	–	–	–	1.37716	1.37239	1.36762	–	–	–
[2], x2 = 0.65	–	–	–	1.37567	1.37093	1.36621	–	–	–
[2], x2 = 0.7	–	–	–	1.37403	1.36933	1.36466	–	–	–
[2], x2 = 0.75	–	–	–	1.37223	1.36757	1.36295	–	–	–
[2], x2 = 0.8	–	–	–	1.37023	1.36562	1.36106	–	–	–
[2], x2 = 0.85	–	–	–	1.36799	1.36345	1.35896	–	–	–
[2], x2 = 0.9	–	–	–	1.36547	1.36102	1.3566	–	–	–
[2], x2 = 0.95	–	–	–	1.36261	1.35826	1.35396	–	–	–

CC(C)(C)O [2-methylpropan-2-ol] + CC(C)CC(C)(C)C
Conditions	mass density, 298.15 K [kg/m3]	mass density, 308.15 K [kg/m3]	mass density, 318.15 K [kg/m3]	refractive index, 298.15 K	refractive index, 308.15 K	refractive index, 318.15 K	viscosity, 298.15 K [mPa·s]	viscosity, 308.15 K [mPa·s]	viscosity, 318.15 K [mPa·s]
[1], x1 = 0.05	689.77	681.15	672.12	–	–	–	0.483	0.425	0.377
[1], x1 = 0.1	691.89	683.25	674.11	–	–	–	0.509	0.449	0.4
[1], x1 = 0.15	694.45	685.62	676.56	–	–	–	0.515	0.447	0.394
[1], x1 = 0.2	697.14	688.28	679.2	–	–	–	0.553	0.478	0.413
[1], x1 = 0.25	700.02	691.11	681.96	–	–	–	0.564	0.48	0.42
[1], x1 = 0.3	703.12	694.14	684.92	–	–	–	0.598	0.522	0.449
[1], x1 = 0.35	706.4	697.38	688.11	–	–	–	0.614	0.523	0.45
[1], x1 = 0.4	709.87	700.8	691.43	–	–	–	0.665	0.564	0.48
[1], x1 = 0.45	713.52	704.42	694.99	–	–	–	0.698	0.59	0.504
[1], x1 = 0.5	717.43	708.24	698.77	–	–	–	0.765	0.633	0.542
[1], x1 = 0.55	721.62	712.37	702.81	–	–	–	0.805	0.672	0.564
[1], x1 = 0.6	726.19	716.85	707.21	–	–	–	0.912	0.726	0.614
[1], x1 = 0.65	731.11	721.69	711.98	–	–	–	0.984	0.786	0.649
[1], x1 = 0.7	736.55	727.03	717.21	–	–	–	1.107	0.866	0.706
[1], x1 = 0.75	742.44	732.81	722.88	–	–	–	1.297	0.994	0.798
[1], x1 = 0.8	748.88	739.1	729.03	–	–	–	1.557	1.14	0.889
[1], x1 = 0.85	755.87	745.89	735.65	–	–	–	1.895	1.332	1.028
[1], x1 = 0.9	763.54	753.43	743.04	–	–	–	2.426	1.622	1.164
[1], x1 = 0.95	771.9	761.62	751.07	–	–	–	3.172	2.02	1.398
[1], x1 = 1	780.99	770.7	760.05	–	–	–	4.43	2.622	1.708
[2], x1 = 0.05	–	–	–	1.38834	1.38325	1.37818	–	–	–
[2], x1 = 0.1	–	–	–	1.38784	1.38271	1.37755	–	–	–
[2], x1 = 0.15	–	–	–	1.38735	1.38219	1.37703	–	–	–
[2], x1 = 0.2	–	–	–	1.38693	1.38177	1.37655	–	–	–
[2], x1 = 0.25	–	–	–	1.3865	1.38135	1.37611	–	–	–
[2], x1 = 0.3	–	–	–	1.38612	1.38095	1.3757	–	–	–
[2], x1 = 0.35	–	–	–	1.38573	1.38055	1.37528	–	–	–
[2], x1 = 0.4	–	–	–	1.38537	1.38021	1.37491	–	–	–
[2], x1 = 0.45	–	–	–	1.38505	1.37986	1.37458	–	–	–
[2], x1 = 0.5	–	–	–	1.38473	1.37955	1.37427	–	–	–
[2], x1 = 0.55	–	–	–	1.38445	1.37926	1.37397	–	–	–
[2], x1 = 0.6	–	–	–	1.3842	1.37903	1.37371	–	–	–
[2], x1 = 0.65	–	–	–	1.38398	1.37881	1.37348	–	–	–
[2], x1 = 0.7	–	–	–	1.38381	1.37862	1.37331	–	–	–
[2], x1 = 0.75	–	–	–	1.38371	1.3785	1.37317	–	–	–
[2], x1 = 0.8	–	–	–	1.38368	1.37847	1.37313	–	–	–
[2], x1 = 0.85	–	–	–	1.38381	1.37858	1.37323	–	–	–
[2], x1 = 0.9	–	–	–	1.38405	1.37879	1.37339	–	–	–
[2], x1 = 0.95	–	–	–	1.38436	1.37914	1.37372	–	–	–
[2], x1 = 1	–	–	–	1.38481	1.3796	1.37416	–	–	–
